Experimental data taken from patent US20260317340A1, “COMPOUNDS, COMPOSITIONS, AND METHODS OF TREATING DISORDERS” (Chengdu Anticancer Bioscience, Ltd., priority 2023, published 2026).
Like-named read-outs stand apart in the source and are kept apart here.

Assays:
[1] = tested on: RPE-Neo or RPE-MYC or RPE-MYC expressing an EGFP-Histone 2B fusion protein; assay: Phenotypic screening assay: arrest in mitosis, change in DNA content (polyploidy), cell death; format: cell-based; conditions: 20 nM to 20 μM, 24, 48 or 72 hours
Procedure, shortened: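 RPE-Neo, RPE-MYC or RPE-MYC EGFP-H2B cells plated 18-24 h before treatment with compounds at 20 nM to 20 μM. Mitotic arrest or DNA-content change scored by automated imaging at 24, 48 or 72 h; proliferation by MTT. Values binned into A–D ranges.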

RPE-Neo or RPE-MYC cells = assay: MTT assay of cellular proliferation (proliferative arrest); format: cell-based; conditions: read-out: Min. Effective conc. for Proliferative arrest (>50%)
[2] = tested on: human cancer cell line NCI-H460; assay: Tumor growth inhibition, NCI-H460 tumors in BAL B/c nude mice; format: in vivo, human tumor cell line in BAL B/c nude mice; conditions: oral, 4 days-on, 3 days-off, 30% PEG300
Method: (§1) Six- to seven-week-old female BAL B/c nude mice were used in the human cancer cell line NCI-H460, which was derived from a lung cancer patient. Six- to seven-week-old female BAL B/c mice were used in the mouse […] cell line CT26 allograft models. 100 μL cell suspensions containing one million cells with […] (Corning, Cat. No. 354254) were implanted subcutaneously into the right flank of mice. Mice were monitored daily for well-being and weighed twice weekly. Caliper measurements of tumor sizes began when tumors became visible. Tumor volume (TV) was calculated by measuring two perpendicular diameters using the following formula: (L×W2)/2 in which L and W refer to the length and width of a tumor, respectively. When tumors reached an average size of 100 mm3, mice were first ranked according to tumor size and divided into “n” cohorts with X mice in each cohort. Each cohort was then sorted into 1 to X groups according to the random numbers size order generated by the RAND 0)function in Excel. In this way, the mice were randomized into X groups (n=4-6). Then the mice were orally administrated with vehicle (30% PEG 300) or indicated compounds at a dose volume of 5 mL/kg in a double-blinded manner. Oral administration was chosen because this is the intended route of use in the clinic. In all cases, no tumor measurement data or animals were excluded from the data analysis. Percentage of tumor growth inhibition (TGI) was calculated using the following formula: % TGI=average 100×[1−(final TV−initial TV of treatment group)/(final TV−initial TV of control group)]. As set forth in table 3 below, an values of greater than or equal to 35% and less than or equal to 45% […] is marked “C”; a value greater than 45% and less than or equal to 55% is marked “B”; a value greater than 55% and less than or equal to 70% is marked “A”; and […]

[3] = Tumor growth inhibition, CT26 allograft in BAL B/c mice; format: in vivo, mouse tumor cell line in BAL B/c mice; conditions: oral, 10 mg/kg, 4 days-on, 3 days-off, 20 days, 30% PEG300
Method: as §1

[4] = read-out: Min. Effective conc. for Along with Cell Death
[5] = ≥5%, read-out: Min. Effective conc. for Mitotic Arrest (≥5%)
[6] = ≥5%, read-out: Min. Effective conc. for Polyploidy (≥5%)

| SMILES | minimal effective concentration [1, 4] [µM] | minimal effective concentration [1, 5] [µM] | minimal effective concentration [1, 6] [µM] | minimal effective concentration (RPE-Neo or RPE-MYC cells) [µM] | TGI % ([2]; 15 mg/kg, 20 days) | TGI % ([2]; 36 mg/kg, 20 days) | TGI % ([2]; 36 mg/kg, 13 days) | TGI % ([2]; 15 mg/kg, 29 days) | TGI % ([2]; 40 mg/kg, 20 days) | TGI % ([2]; 50 mg/kg, 20 days) | TGI % ([2]; 80 mg/kg, 20 days) | TGI % [3] |
| --- | --- | --- | --- | --- | --- | --- | --- | --- | --- | --- | --- | --- |
| COc1ccc(CN2C(=O)CC(c3ncc(C)o3)=Cc3ccc(-c4cnn(CCO)c4)cc32)cc1 [Compound 36, 8-(1-(2-hydroxyethyl)-1H-pyrazol-4-yl)-1-(4-methoxybenzyl)-4-(5-methyloxazol-2-yl)-1,3-dihydro-2H-benzo[b]azepin-2-one] | 0.001 to 1 | 0.001 to 1 | 0.001 to 1 | 0.001 to 1 | A (greater than 55% and less than or equal to 70%) |  |  |  |  |  |  |  |
| COc1ccc(CN2C(=O)CC(c3ncc(C)o3)=Cc3ccc(-c4cnn(CCN5CCOCC5)c4)cc32)cc1 [Compound 38, 1-(4-methoxybenzyl)-4-(5-methyloxazol-2-yl)-8-(1-(2-morpholinoethyl)-1H-pyrazol-4-yl)-1,3-dihydro-2H-benzo[b]azepin-2-one] | 0.001 to 1 | 0.001 to 1 | 0.001 to 1 | 0.001 to 1 |  | B (greater than 45% and less than or equal to 55%) |  |  |  |  |  |  |
| COc1ccc(CN2C(=O)CC(c3ncc(C)o3)=Cc3ccc(-c4ccc(N)nc4)cc32)cc1 [Compound 42, 8-(6-aminopyridin-3-yl)-1-(4-methoxybenzyl)-4-(5-methyloxazol-2-yl)-1,3-dihydro-2H-benzo[b]azepin-2-one] | 0.001 to 1 | 0.001 to 1 | 0.001 to 1 | 0.001 to 1 |  |  | C (greater than or equal to 35% and less than or equal to 45% μM) |  |  |  |  |  |
| COc1ccc(CN2C(=O)CC(c3ncc(C)o3)=Cc3ccc(-c4ccc(=O)n(C)c4)cc32)cc1 [Compound 45, 1-(4-methoxybenzyl)-8-(1-methyl-6-oxo-1,6-dihydropyridin-3-yl)-4-(5-methyloxazol-2-yl)-1,3-dihydro-2H-benzo[b]azepin-2-one] | 0.001 to 1 | 0.001 to 1 | 0.001 to 1 | 0.001 to 1 |  | A (greater than 55% and less than or equal to 70%) |  |  |  |  |  |  |
| COCCn1cc(-c2ccc3c(c2)N(Cc2ccc(OC)cc2)C(=O)CC(c2ncc(C)o2)=C3)cn1 [Compound 51, 1-(4-methoxybenzyl)-8-(1-(2-methoxyethyl)-1H-pyrazol-4-yl)-4-(5-methyloxazol-2-yl)-1,3-dihydro-2H-benzo[b]azepin-2-one] | 0.001 to 1 | 0.001 to 1 | 0.001 to 1 | 0.001 to 1 |  |  |  | A (greater than 55% and less than or equal to 70%) |  |  |  |  |
| COc1ccc(CN2C(=O)CC(c3ncc(C)o3)=Cc3ccc(-c4cnn(CC5CC5)c4)cc32)cc1 [Compound 53, 8-(1-(cyclopropylmethyl)-1H-pyrazol-4-yl)-1-(4-methoxybenzyl)-4-(5-methyloxazol-2-yl)-1,3-dihydro-2H-benzo[b]azepin-2-one] | 0.001 to 1 | 0.001 to 1 | 0.001 to 1 | 0.001 to 1 |  |  |  |  | C (greater than or equal to 35% and less than or equal to 45% μM) |  |  |  |
| COc1ccc(CN2C(=O)CC(c3ncc(C)o3)=Cc3ccc(-c4cnn(C5COC5)c4)cc32)cc1 [Compound 54, 1-(4-Methoxybenzyl)-4-(5-methyloxazol-2-yl)-8-(1-(oxetan-3-yl)-1H-pyrazol-4-yl)-1,3-dihydro-2H-benzo[b]azepin-2-one] | 0.001 to 1 | 0.001 to 1 | 0.001 to 1 | 0.001 to 1 |  |  |  |  |  | C (greater than or equal to 35% and less than or equal to 45% μM) |  |  |
| COCCCn1cc(-c2ccc3c(c2)N(Cc2ccc(OC)cc2)C(=O)CC(c2ncc(C)o2)=C3)cn1 [Compound 57, 1-(4-Methoxybenzyl)-8-(1-(3-methoxypropyl)-1H-pyrazol-4-yl)-4-(5-methyloxazol-2-yl)-1,3-dihydro-2H-benzo[b]azepin-2-one] | 0.001 to 1 | 0.001 to 1 | 0.001 to 1 | 0.001 to 1 |  |  |  |  |  |  | A (greater than 55% and less than or equal to 70%) |  |
| COc1ccc(CN2C(=O)CC(c3ncc(C)o3)=Cc3ccc(-c4cnn(CC(C)O)c4)cc32)cc1 (centres unmarked) [Compound 61, 8-(1-(2-hydroxypropyl)-1H-pyrazol-4-yl)-1-(4-methoxybenzyl)-4-(5-methyloxazol-2-yl)-1,3-dihydro-2H-benzo[b]azepin-2-one] | 0.001 to 1 | 0.001 to 1 | 0.001 to 1 | 0.001 to 1 |  |  |  |  |  |  |  | A (greater than 55% and less than or equal to 70%) |
| COc1ccc(CN2C(=O)CC(c3ncc(C)o3)=Cc3ccc(-c4cnn(CC(C)(C)O)c4)cc32)cn1 [Compound 103, 8-(1-(2-Hydroxy-2-methylpropyl)-1H-pyrazol-4-yl)-1-((6-methoxypyridin-3-yl)methyl)-4-(5-methyloxazol-2-yl)-1,3-dihydro-2H-benzo[b]azepin-2-one] | 0.001 to 1 | 0.001 to 1 | 0.001 to 1 | 0.001 to 1 |  |  |  |  |  |  |  |  |
| COc1ccc(C(=O)N2CCC(c3ncc(C)o3)=Cc3ccc(-c4cnn(CC(C)(C)O)c4)cc32)cc1 [Compound 104, (8-(1-(2-Hydroxy-2-methylpropyl)-1H-pyrazol-4-yl)-4-(5-methyloxazol-2-yl)-2,3-dihydro-1H-benzo[b]azepin-1-yl) (4-methoxyphenyl)methanone] | 0.001 to 1 | 0.001 to 1 | 0.001 to 1 | 0.001 to 1 |  |  |  |  |  |  |  |  |
| COc1ccc(C(=O)N2CCC(c3ncc(C)o3)=Cc3ccc(-c4cnn(CC(C)(C)O)c4)cc32)cn1 [Compound 105, (8-(1-(2-Hydroxy-2-methylpropyl)-1H-pyrazol-4-yl)-4-(5-methyloxazol-2-yl)-2,3-dihydro-1H-benzo[b]azepin-1-yl)(6-methoxypyridin-3-yl)methanone] | 0.001 to 1 | 0.001 to 1 | 0.001 to 1 | 0.001 to 1 |  |  |  |  |  |  |  |  |
| COc1ccc(C(=O)N2CCC(c3ncc(C)o3)=Cc3ccc(-c4cnn(CC(C)(C)O)c4)cc32)cc1F [Compound 106, (3-Fluoro-4-methoxyphenyl)(8-(1-(2-hydroxy-2-methylpropyl)-1H-pyrazol-4-yl)-4-(5-methyloxazol-2-yl)-2,3-dihydro-1H-benzo[b]azepin-1-yl)methanone] | 0.001 to 1 | 0.001 to 1 | 0.001 to 1 | 0.001 to 1 |  |  |  |  |  |  |  |  |
| COc1ccc(CN2C(=O)CC(c3ncc(C)o3)=Cc3ccc(-c4cnn(C(C)(C)C(N)=O)c4)cc32)cc1F [Compound 107, 2-(4-(1-(3-fluoro-4-methoxybenzyl)-4-(5-methyloxazol-2-yl)-2-oxo-2,3-dihydro-1H-benzo[b]azepin-8-yl)-1H-pyrazol-1-yl)-2-methylpropanamide] | 0.001 to 1 | 0.001 to 1 | 0.001 to 1 | 0.001 to 1 |  |  |  |  |  |  |  |  |
